According to patent US4451470A, “Analgesic, antagonist, and/or anorectic 14-fluoromorphinans” (E. I. Du Pont de Nemours and Company, priority 1982, dated 1984):
Where two headings read alike, the source gives them in different places.

Experiments:
[1] = system: Straub tail induced by morphine sulfate in mice; test: Narcotic antagonist test (mouse anti-Straub tail test against morphine); format: in vivo, mouse (female CF1 S); conditions: vs 30 mg/kg morphine sulfate i.p.
Procedure: This property is the basis of a mouse test for narcotic antagonists.
Female CF1 S mice (fasted 17-21 hrs.), 5 per dose, were injected orally or subcutaneously with test drug at 0.67, 2, 6, 18, 54 and 162 mg/kg or other appropriate doses in 0.20 ml 1% Methocel® per mouse. Five minutes later, 30 mg/kg of morphine sulfate in 0.20 ml 1% Methocel® per mouse was given intraperitoneally. Starting ten minutes later, the mice were observed continuously for 5 minutes for evidence of Straub tail. Prevention of Straub tail during this observation period was taken as indication of narcotic antagonist ability.

[2] = system: Straub tail reaction in mice; test: Narcotic test (Straub tail reaction); format: in vivo, mouse (CF1 S female); conditions: 0.4 h, read-out: EFFECT ED50 Straub-tail (Oral)
Procedure: Narcotic analgesics which have only agonist activity produce in mice an erection and arching of the tail (90° or more) which is referable to spinal cord stimulation. This Straub tail reaction is not produced by other analgesics, including the narcotic antagonists.
The method used was modified from Shemano, I., and Wendel, H., Tox. Appl. Pharm., 6, 334-9 (1964). CF1 S female mice (18-21 g), 10-20 mice per dose, were […] with log scaled doses of analgesic in 1% aqueous methylcellulose. A positive Straub tail response was recorded if a tail was erected 90° or more for 5 seconds at any time within 24 minutes after dosing. A quantal Straub tail ED50 was calculated by the moving average method [Thompson, W. R., Bact. Rev., 11, 115-145 (1947)].

[3] = system: writhing syndrome induced by phenylquinone in mice; test: Analgesic test (phenylquinone writhing, anti-PQW); format: in vivo, mouse (female white mice); conditions: mouse; oral; phenylquinone i.p.; read-out: EFFECT ED50 Anti-PQW (Oral)
Procedure: A standard procedure for detecting and comparing the analgesic activity of compounds in this series for which there is good correlation with human efficacy is the standard phenylquinone writhing test modified from Siegmund, et al., Proc. Soc. Exp. Biol. Med., 95, 729 (1957). A test compound suspended in 1% Methocel® was given orally to fasted (17-21 hours) female white mice, 5-20 animals per double blind test. Aqueous phenylquinone (0.1% phenyl-p-benzoquinone) was injected intraperitoneally at 24 minutes later using 0.20 ml per mouse. […] The effective analgesic dose for 50% of the mice (ED50) was calculated by the moving average method of Thompson, W. R., Bact. Rev., 11, 115-145 (1947).

[4] = system: Straub tail induced by morphine in mice; conditions: mouse; cited from earlier work
[5] = chronic oral therapy; cited from earlier work
[6] = sc, read-out: EFFECT ED50 Anti-Straub Tail (s.c.)
[7] = mouse, oral, within 24 minutes after dosing

## CN1CC[C@]23c4c5ccc(O)c4OC2C(=O)CC[C@@]3(F)[C@H]1C5 (stereo partly shown) [Example 7, 17-Methyl-14-fluoro-3-hydroxy-4,5-epoxymorphinan-6-one]
[1]; [6]
  ED50: > 81 mg/kg
[2]; Mus musculus, po
  ED50: 18.7 mg/kg
[3]
  ED50: 2.4 mg/kg

## C=CCN1CC[C@]23c4c5ccc(O)c4O[C@H]2[C@@H](O)C=C[C@H]3[C@H]1C5 [nalorphine]
[4]
  prevention of Straub tail induced by morphine: prevent the induction of Straub tail

## O=C1CC[C@@]2(F)[C@H]3Cc4ccc(O)c5c4[C@@]2(CCN3CC2CC2)C1O5 (stereo partly shown) [Example 3, 17-(Cyclopropylmethyl)-4,5-epoxy-14-fluoro-3-hydroxymorphinan-6-one]
[1]; oral, read-out: EFFECT ED50 Anti-Straub Tail (Oral)
  ED50: 0.09 mg/kg
[1]; [6]
  ED50: 0.01 mg/kg
[2]; Mus musculus, po
  ED50: > 135 mg/kg
[3]
  ED50: > 135 mg/kg

## C=CCN1CC[C@]23c4c5ccc(O)c4O[C@H]2C(=O)CC[C@@]3(O)[C@H]1C5 [Naloxone]
[4]
  prevention of Straub tail induced by morphine: prevent the induction of Straub tail

## COc1ccc2c3c1OC1C(=O)CC[C@@]4(F)[C@@H](C2)N(CC2CC2)CC[C@]314 (stereo partly shown) [Example 2, 17-(Cyclopropylmethyl)-4,5-epoxy-14-fluoro-3-methoxymorphinan-6-one]
[1]; [6]
  ED50: 0.33 mg/kg
[2]; Mus musculus, po
  ED50: > 135 mg/kg
[3]
  ED50: > 135 mg/kg

## Oc1ccc2c3c1O[C@H]1[C@@H](O)CCC4(F)C(C2)N(CC2CCC2)CCC314 (stereo partly drawn) [Example 6, 17-(Cyclobutylmethyl)-4,5-epoxy-14-fluoro-morphinan-3,6-diol (α-isomer)]
[1]; [6]
  ED50: 0.41 mg/kg
[2]; [7]
  ED50: > 135 mg/kg
[3]
  ED50: 30.4 mg/kg

## COc1ccc2c3c1O[C@H]1C4(CCC5(F)C(C2)N(CC2CC2)CCC315)OCCO4 (stereo partly shown) [Example 1]
[1]; [6]
  ED50: 1.7 mg/kg
[2]; [7]
  ED50: > 135 mg/kg
[3]
  ED50: 42 mg/kg

## COc1ccc2c3c1O[C@H]1C4(CCC5(F)C(C2)N(C)CCC315)OCCO4 (stereo partly shown) [Example 10]
[1]; [6]
  ED50: > 135 mg/kg
[2]; [7]
  ED50: > 135 mg/kg
[3]
  ED50: 5 mg/kg

## O=C1CC[C@@]2(O)[C@H]3Cc4ccc(O)c5c4[C@@]2(CCN3CC2CC2)[C@H]1O5 [naltrexone]
[5]
  abstinence of opiate addicts: remain abstinent

## COc1ccc2c3c1O[C@H]1C(=O)CCC4(F)C(C2)N(C)CCC314 (stereo partly shown) [Example 11]
[1]; [6]
  ED50: > 135 mg/kg
[2]; [7]
  ED50: 45 mg/kg
[3]
  ED50: 6.3 mg/kg

## COc1ccc2c3c1O[C@H]1C(=O)CCC4(F)C(C2)N(CC2CCC2)CCC314 (stereo partly shown) [Example 9]
[1]; [6]
  ED50: 6 mg/kg
[2]; [7]
  ED50: > 135 mg/kg
[3]
  ED50: 27.6 mg/kg

## COc1ccc2c3c1O[C@H]1C4(CCC5(F)C(C2)N(CC2CCC2)CCC315)OCCO4 (stereo partly shown) [Example 8]
[1]; [6]
  ED50: > 135 mg/kg
[2]; [7]
  ED50: > 135 mg/kg
[3]
  ED50: 11.1 mg/kg
